The values below come from PubChem BioAssay AID330 (DTP/NCI, 2004).

Molecules are shown by their SMILES. “And” between values parts separate entries of the source, which are not always exact repeats. Equal values may be shown once. Toxic doses and inconclusive results are not listed. Peptide text beside a SMILES is read from it. * marks the point of attachment. X13 = CC(C)CC(NN)C(=O)*

This test has as its system P388 leukemia ip, CD2F1 mice, survival T/C. Briefly: NCI In Vivo Anticancer Drug Screen. Data for tumor model P388 Leukemia (intraperitoneal) in CD2F1 (CDF1) mice. To be noted: endpoint: median survival time, higher = longer survival. The method, boiled down: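 Mice carrying the transplanted tumor received test compound or vehicle. Survival was recorded in each group, and the value is the treated-group measurement divided by that of the vehicle-treated control group.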

[1] abbreviates: dose: 3.13 mg/kg/injection, schedule: Q01DX009 (ip), vehicle: saline.
Where [2] appears, read: dose: 6.25 mg/kg/injection, schedule: Q01DX009 (ip), vehicle: saline.
[3] abbreviates: dose: 12.5 mg/kg/injection, schedule: Q01DX009 (ip), vehicle: saline.
The mark [4] stands for this setting: dose: 25.0 mg/kg/injection, schedule: Q01DX009 (ip), vehicle: saline.
Where [5] appears, read: dose: 25.0 mg/kg/injection, schedule: Q04DX003 (ip), vehicle: saline with Tween-80.
Setting [6] is: dose: 50.0 mg/kg/injection, schedule: Q04DX003 (ip), vehicle: saline with Tween-80.
Setting [7] is: dose: 100.0 mg/kg/injection, schedule: Q04DX003 (ip), vehicle: saline with Tween-80.
The mark [8] stands for this setting: dose: 60.0 mg/kg/injection, schedule: Q01DX005 (ip), vehicle: saline with Tween-80.
Where [9] appears, read: dose: 50.0 mg/kg/injection, schedule: Q01DX005 (ip), vehicle: saline with Tween-80.
Setting [10] is: dose: 100.0 mg/kg/injection, schedule: Q01DX005 (ip), vehicle: saline with Tween-80.
Setting [11] is: dose: 200.0 mg/kg/injection, schedule: Q01DX005 (ip), vehicle: saline with Tween-80.
The mark [12] stands for this setting: dose: 50.0 mg/kg/injection, schedule: Q01DX009 (ip), vehicle: saline with Tween-80.
[13] abbreviates: dose: 100.0 mg/kg/injection, schedule: Q01DX009 (ip), vehicle: saline with Tween-80.
The mark [14] stands for this setting: dose: 200.0 mg/kg/injection, schedule: Q01DX009 (ip), vehicle: saline with Tween-80.

Consider `c1ccc(-c2cc3ccc4cccnc4c3o2)cc1`, for which the T/C was 91 % of control (dose: 100.0 mg/kg/injection, schedule: Q04DX002 (ip), vehicle: saline with Tween-80); 87 % of control (dose: 200.0 mg/kg/injection, schedule: Q04DX002 (ip), vehicle: saline with Tween-80); 103 % of control (dose: 400.0 mg/kg/injection, schedule: Q04DX002 (ip), vehicle: saline with Tween-80).

On to `C[n+]1cccc(C2=CCCC2)c1`, for which the T/C was 109 % of control under setting [1]; 100 % of control under setting [2]; 100 % of control under setting [3]; 102 % of control (dose: 12.5 mg/kg/injection, schedule: Q04DX003 (ip), vehicle: water); 100 % of control under setting [4]; 93 % of control under setting [5]. In addition, the T/C was 97 % of control (dose: 25.0 mg/kg/injection, schedule: Q04DX003 (ip), vehicle: water); 92 % of control under setting [6]; 97 % of control under setting [7]; 105 % of control (dose: 200.0 mg/kg/injection, schedule: Q04DX003 (ip), vehicle: saline with Tween-80).

For `NC1(C(=O)O)CCCC1.O.[Cl][Au]`, the T/C under setting [8] is 110 % of control.

For the compound `CCC(C(=O)O)C(=O)O.[NH2-].[NH2-].[Pt+2]`, the T/C is, setting by setting: (dose: 50.0 mg/kg/injection, schedule: Q01DX001 (ip), vehicle: saline) 152 % of control; (dose: 100.0 mg/kg/injection, schedule: Q01DX001 (ip), vehicle: saline) 175 % of control; (dose: 200.0 mg/kg/injection, schedule: Q01DX001 (ip), vehicle: saline) 189 % of control and 205 % of control.

In the case of `COc1ccc(C2NC(C(=O)O)CS2)cc1OC` (configuration not stated), the T/C is, setting by setting: (dose: 50.0 mg/kg/injection, schedule: Q01DX009 (ip), vehicle: suspension in saline) 95 % of control; (dose: 100.0 mg/kg/injection, schedule: Q01DX009 (ip), vehicle: suspension in saline) 95 % of control; (dose: 200.0 mg/kg/injection, schedule: Q01DX009 (ip), vehicle: suspension in saline) 87 % of control and 97 % of control.

On to `C[N+](C)(C)c1ccc2c(c1)CCC/C2=N\N`, for which the T/C is 100 % of control (dose: 1.56 mg/kg/injection, schedule: Q04DX003 (ip), vehicle: saline); 100 % of control (dose: 3.13 mg/kg/injection, schedule: Q04DX003 (ip), vehicle: saline); 97 % of control (dose: 6.25 mg/kg/injection, schedule: Q04DX003 (ip), vehicle: saline).

As to `COC1=NC2(C)C(C)=C(c3ccccc3)C1(C)c1ccccc12` (configuration not stated), the T/C was 100 % of control under setting [8]; 98 % of control (dose: 120.0 mg/kg/injection, schedule: Q01DX005 (ip), vehicle: saline with Tween-80); 99 % of control (dose: 240.0 mg/kg/injection, schedule: Q01DX005 (ip), vehicle: saline with Tween-80).

As for `Cc1nc(-c2nc(C(=O)NCCC[S+](C)C)cs2)cs1`, the T/C (dose: 50.0 mg/kg/injection, schedule: Q01DX005 (ip), vehicle: saline) was 104 % of control.

With `CC(=O)c1c(O)cc2c(c1O)C1CC(C)(CCC1=C(C)C)O2` (configuration not stated), the T/C by setting is: under setting [2], 105 % of control; under setting [3], 105 % of control; under setting [4], 107 % of control; (dose: 100.0 mg/kg/injection, schedule: Q01DX009 (ip), vehicle: saline) 90 % of control; (dose: 200.0 mg/kg/injection, schedule: Q01DX009 (ip), vehicle: saline) 89 % of control.

In the case of `CCOC(=O)/C=C1/C(=O)OC2C1OC1OC(C)(C)OC12` (configuration not stated), the T/C was 98 % of control (dose: 3.75 mg/kg/injection, schedule: Q01DX005 (ip), vehicle: saline with Tween-80) and 97 % of control (dose: 7.5 mg/kg/injection, schedule: Q01DX005 (ip), vehicle: saline with Tween-80).

For `O=C1CCC(N(Cc2ccccc2)Cc2ccccc2)C(=O)O1` (configuration not stated), the T/C (dose: 100.0 mg/kg/injection, schedule: Q04DX003 (ip), vehicle: Klucel (hydroxypropylcellulose) (HPC)) is 112 % of control; the T/C (dose: 200.0 mg/kg/injection, schedule: Q04DX003 (ip), vehicle: Klucel (hydroxypropylcellulose) (HPC)) is 109 % of control; the T/C (dose: 400.0 mg/kg/injection, schedule: Q04DX003 (ip), vehicle: Klucel (hydroxypropylcellulose) (HPC)) was 100 % of control.

In the case of `CC(C)CC(NN)C(=O)NC(CCCN=C(N)N)C(=O)NC(CCCN=C(N)N)C(=O)NC(C)C(=O)NC(CO)C(=O)NC(C(=O)NC(C)C(=O)O)C(C)C` (configuration not stated) (X13-RRASVA-OH; configuration not given here), the T/C by setting is: (dose: 4.5 mg/kg/injection, schedule: Q01DX009 (ip), vehicle: Klucel (hydroxypropylcellulose) (HPC)) 101 % of control; (dose: 9.0 mg/kg/injection, schedule: Q01DX009 (ip), vehicle: Klucel (hydroxypropylcellulose) (HPC)) 94 % of control; (dose: 18.0 mg/kg/injection, schedule: Q01DX009 (ip), vehicle: Klucel (hydroxypropylcellulose) (HPC)) 98 % of control; (dose: 36.0 mg/kg/injection, schedule: Q01DX009 (ip), vehicle: Klucel (hydroxypropylcellulose) (HPC)) 96 % of control.

As for `CC(=O)/C=C/c1ccc(OC(=O)/C=C/c2ccccc2)cc1`, the T/C is 101 % of control under setting [9], 100 % of control under setting [10] and 98 % of control under setting [11].

In the case of `C=CCNC(=S)NNC(=O)CNC(c1ccc(OC)cc1)C(CC)c1ccc(OC)cc1` (configuration not stated), the T/C is 99 % of control (dose: 100.0 mg/kg/injection, schedule: Q01DX001 (ip), vehicle: saline with Tween-80) and 110 % of control (dose: 200.0 mg/kg/injection, schedule: Q01DX001 (ip), vehicle: saline with Tween-80).

On to `Cn1c2ccccc2c(=O)c2cc(NC(=O)CCC(=O)Nc3ccc4c(c3)c(=O)c3ccccc3n4C)ccc21`, for which the T/C was 99 % of control under setting [9], 97 % of control under setting [10] and 97 % of control under setting [11].

With `CSc1ccc(N2C(=O)CSC2=O)cc1`, the T/C runs as follows: under setting [12], 106 % of control; under setting [13], 114 % of control; under setting [14], 109 % of control.

As to `CCCCCCCCCCCCCCCC(=O)OCCCCCCCCCCC`, the T/C runs as follows: under setting [5], 113 % of control; under setting [6], 95 % of control; under setting [7], 90 % of control.

On to `COc1ccc(Cc2nc(C)cc3cc(OC)c(OC)cc23)cc1OC`, for which the T/C is 111 % of control (dose: 50.0 mg/kg/injection, schedule: Q01DX009 (ip), vehicle: water); 102 % of control (dose: 100.0 mg/kg/injection, schedule: Q01DX009 (ip), vehicle: water); 89 % of control (dose: 200.0 mg/kg/injection, schedule: Q01DX009 (ip), vehicle: water).

Regarding `Brc1ccc(N=Cc2cccs2)cc1`, the T/C was 100 % of control (dose: 100.0 mg/kg/injection, schedule: Q04DX003 (ip), vehicle: saline); 99 % of control (dose: 200.0 mg/kg/injection, schedule: Q04DX003 (ip), vehicle: saline); 98 % of control (dose: 400.0 mg/kg/injection, schedule: Q04DX003 (ip), vehicle: saline).

Regarding `O=c1c2c([nH]c3ccccc13)CSC2`, the T/C is 100 % of control under setting [12]; 100 % of control under setting [13]; 97 % of control under setting [14]; 100 % of control (dose: 400.0 mg/kg/injection, schedule: Q01DX009 (ip), vehicle: saline with Tween-80).

`COc1cccc2c1C(=O)c1c(O)c3c(c(O)c1C2=O)C[C@@](O)(C(C)=O)C[C@@H]3OC1CC(NC(C)=O)C(O)C(C)O1` (some centres not stated): the T/C by setting is: (dose: 2.0 mg/kg/injection, schedule: Q01DX009 (ip), vehicle: saline) 113 % of control; under setting [1], 157 % of control; under setting [2], 109 % of control; under setting [3], 166 % of control.

On to `COc1ccc(C2CC(=O)N(CCCl)C(=O)C2)cc1`, for which the T/C (dose: 100.0 mg/kg/injection, schedule: Q01DX001 (ip), vehicle: suspension in saline) is 102 % of control; the T/C (dose: 200.0 mg/kg/injection, schedule: Q01DX001 (ip), vehicle: suspension in saline) was 103 % of control; the T/C (dose: 400.0 mg/kg/injection, schedule: Q01DX001 (ip), vehicle: suspension in saline) is 100 % of control.
